In ChEMBL document CHEMBL1154116, “Predictive models, based on classification algorithms, for compounds potentially active as mitochondrial ATP-sensitive potassium channel openers” (Bioorg Med Chem, 2009):
Active and inactive are the calls of the source. The rule behind the calls is not given here.

Tested on: Heart
Test: Cardioprotective effect in Langendorff perfused isolated rat hearts assessed as reduction in ischemic injury
Format: functional, tissue-based

Cc1ccc(CN2CC3(CC(C)(C)Oc4ccccc43)OCC2=O)cc1 (stereo not given)
Activity: inactive

COc1ccc(CN2CC3(CC(C)(C)Oc4ccc(Br)cc43)OCC2=O)cc1 (stereo not given)
Activity: Active

CC1(C)CC2(CN(Cc3ccc(Br)cc3)C(=O)CO2)c2ccccc2O1 (stereo not given)
Activity: Active

CC1(C)CC2(CN(Cc3ccc(NS(C)(=O)=O)cc3)CCO2)c2cc(Br)ccc2O1 (stereo not given)
Activity: Active

CC(=O)Nc1ccc(C(=O)N2CCOC3(C2)CC(C)(C)Oc2ccccc23)cc1 (stereo not given)
Activity: inactive

CC(N/C(=N\C#N)Nc1ccncc1)C(C)(C)C (stereo not given)
Activity: Active

CCC(C)(C)/N=C(\NC#N)Nc1cccnc1
Activity: inactive

CC1(C)CC2(CN(Cc3ccc(C(F)(F)F)cc3)CCO2)c2ccccc2O1 (stereo not given)
Activity: inactive

CC1(C)CC2(CN(S(=O)(=O)c3ccccc3)CCO2)c2ccccc2O1 (stereo not given)
Activity: inactive

CC1(C)CC2(CN(Cc3ccc(N)cc3)CCO2)c2ccccc2O1 (stereo not given)
Activity: Active

CC1(C)CN(C2=CCCC2=O)c2cc(C(F)(F)F)ccc2S1
Activity: Active

CC1(C)CC2(CN(Cc3ccc(NS(C)(=O)=O)cc3)C(=O)CO2)c2cc(Br)ccc2O1 (stereo not given)
Activity: Active

CC1(C)CC2(CN(Cc3ccccc3)CCO2)c2cc(Br)ccc2O1 (stereo not given)
Activity: inactive

CC1(C)CC2(CN(C(=O)c3ccccc3)CCO2)c2ccccc2O1 (stereo not given)
Activity: inactive

COc1cccc(CN2CCOC3(C2)CC(C)(C)Oc2ccc(Br)cc23)c1 (stereo not given)
Activity: Active

CC(=O)Nc1ccc(CN2CC3(CC(C)(C)Oc4ccc(Br)cc43)OCC2=O)cc1 (stereo not given)
Activity: inactive

CC1(C)CC2(CN(Cc3ccccc3)C(=O)CO2)c2ccccc2O1 (stereo not given)
Activity: inactive

CC(=O)Nc1ccc(CN2CCOC3(C2)CC(C)(C)Oc2ccccc23)cc1 (stereo not given)
Activity: inactive

Cc1ccc(CN2CCOC3(C2)CC(C)(C)Oc2ccc(Br)cc23)cc1 (stereo not given)
Activity: Active

CC1(C)CC2(OC(=O)N(Cc3ccccc3)C2=N)c2cc(Br)ccc2O1 (stereo not given)
Activity: inactive

CC1(C)CC2(CN(Cc3ccccc3)CCO2)c2ccccc2O1 (stereo not given)
Activity: Active

CC1(C)CC2(CN(Cc3ccccc3)C(=S)CO2)c2ccccc2O1 (stereo not given)
Activity: Active

CC1(C)CC2(CN(Cc3ccc(C(F)(F)F)cc3)C(=O)CO2)c2cc(Br)ccc2O1 (stereo not given)
Activity: inactive

CC(=O)Nc1ccc(CN2CC3(CC(C)(C)Oc4ccccc43)OCC2=O)cc1 (stereo not given)
Activity: Active

CC1(C)CN(C2=CCCC2=O)c2cc(C#N)ccc2S1
Activity: Active

CC1=Nc2ccc(Cl)cc2S(=O)(=O)N1
Activity: Active

CC1(C)CC2(CN(Cc3ccc(N)cc3)CCO2)c2cc(Br)ccc2O1 (stereo not given)
Activity: inactive

CC1(C)CC2(CN(Cc3ccc(C(F)(F)F)cc3)C(=O)CO2)c2ccccc2O1 (stereo not given)
Activity: inactive

CC1(C)CC2(CN(Cc3ccc(N)cc3)C(=O)CO2)c2cc(Br)ccc2O1 (stereo not given)
Activity: Active

CC1(C)CC2(CN(Cc3ccc(N)cc3)C(=O)CO2)c2ccccc2O1 (stereo not given)
Activity: Active

CC1(C)CC2(CN(Cc3ccc(NS(C)(=O)=O)cc3)C(=O)CO2)c2ccccc2O1 (stereo not given)
Activity: Active

CC1(C)CC2(CN(S(=O)(=O)c3ccccc3)C(=O)CO2)c2ccccc2O1 (stereo not given)
Activity: inactive

CC1(C)CC2(CN(Cc3ccc(C(F)(F)F)cc3)CCO2)c2cc(Br)ccc2O1 (stereo not given)
Activity: Active

CC1(C)CN(C2=CCCC2=O)c2cc([N+](=O)[O-])ccc2S1
Activity: Active

COc1ccc(CN2CC3(CC(C)(C)Oc4ccccc43)OCC2=O)cc1 (stereo not given)
Activity: inactive

COc1cccc(CN2CC3(CC(C)(C)Oc4ccccc43)OCC2=O)c1 (stereo not given)
Activity: inactive

COc1ccc(CN2CCOC3(C2)CC(C)(C)Oc2ccccc23)cc1 (stereo not given)
Activity: Active

CC(=O)Nc1ccc(CN2CCOC3(C2)CC(C)(C)Oc2ccc(Br)cc23)cc1 (stereo not given)
Activity: inactive

CC1(C)Oc2ccc(C#N)cc2[C@H](N(Cc2ncc[nH]2)c2ccc(Cl)cc2)[C@H]1O
Activity: Active

Cc1ccc(CN2CCOC3(C2)CC(C)(C)Oc2ccccc23)cc1 (stereo not given)
Activity: Active

COc1cccc(CN2CCOC3(C2)CC(C)(C)Oc2ccccc23)c1 (stereo not given)
Activity: inactive

CC(=O)Nc1ccc(CN2CC3(CC(C)(C)Oc4ccccc43)OC2=O)cc1 (stereo not given)
Activity: inactive

CC1(C)CC2(CN(Cc3ccccc3)C(=O)CO2)c2cc(Br)ccc2O1 (stereo not given)
Activity: inactive

COc1cccc(CN2CC3(CC(C)(C)Oc4ccc(Br)cc43)OCC2=O)c1 (stereo not given)
Activity: inactive

CC1(C)Oc2ccc(C#N)cc2[C@@H](/N=C(\NC#N)Nc2ccc(Cl)cc2)[C@@H]1O (single isomer, unassigned)
Activity: Active

CC1(C)Oc2ccc(C#N)cc2C(N2CCCC2=O)C1O (stereo not given)
Activity: Active

COc1ccccc1CN1CC2(CC(C)(C)Oc3ccccc32)OCC1=O (stereo not given)
Activity: Active

CC1(C)CC2(OC(=O)N(Cc3ccc(NS(C)(=O)=O)cc3)C2=N)c2cc(Br)ccc2O1 (stereo not given)
Activity: inactive

CC1(C)CC2(CN(C(=O)c3ccccc3)C(=O)CO2)c2ccccc2O1 (stereo not given)
Activity: inactive

CC(=O)Nc1ccc(CN2C(=N)C3(CC(C)(C)Oc4ccccc43)OC2=O)cc1 (stereo not given)
Activity: Active

CC1(C)CC2(CN(Cc3ccc(NS(C)(=O)=O)cc3)CCO2)c2ccccc2O1 (stereo not given)
Activity: inactive

CC1(C)CC2(CN(Cc3ccc(Br)cc3)C(=O)CO2)c2cc(Br)ccc2O1 (stereo not given)
Activity: inactive

Cc1ccc(C(=O)N2CCOC3(C2)CC(C)(C)Oc2ccccc23)cc1 (stereo not given)
Activity: inactive

CC1(C)CC2(OC(=O)N(Cc3ccc(NS(C)(=O)=O)cc3)C2=N)c2ccccc2O1 (stereo not given)
Activity: inactive

CC1(C)CC2(CN(Cc3ccc(Br)cc3)CCO2)c2ccccc2O1 (stereo not given)
Activity: inactive

COc1ccc(CN2CCOC3(C2)CC(C)(C)Oc2ccc(Br)cc23)cc1 (stereo not given)
Activity: inactive

Cc1ccc(CN2CC3(CC(C)(C)Oc4ccc(Br)cc43)OCC2=O)cc1 (stereo not given)
Activity: inactive

CC1(C)CC2(CN(Cc3ccccc3)C(=S)CO2)c2cc(Br)ccc2O1 (stereo not given)
Activity: inactive

COc1ccccc1CN1CC2(CC(C)(C)Oc3ccc(Br)cc32)OCC1=O (stereo not given)
Activity: Active

CC1(C)CC2(CN(Cc3ccc(NS(C)(=O)=O)cc3)C(=O)O2)c2ccccc2O1 (stereo not given)
Activity: inactive
